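Values below derive from 48-hour exposures of cells grown in 96-well plates, with endpoints linearly interpolated between the two concentrations bracketing the appropriate inhibition level. GI50 = concentration required for 50% inhibition of growth.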 The source made the active and inactive calls. Rule as the data show it: active = GI50 up to about 1.1 µM and inactive = higher.
Legend:
Assay in all cases: inhibition of tumour cell growth, NCI panel, 48 h
ACHN = system: ACHN
CCRF-CEM = system: CCRF-CEM
COLO 205 = system: COLO 205
HCT-116 = system: HCT-116
HL-60 = system: HL-60
K562 = system: K562
LOX IMVI = system: LOX IMVI
MDA-MB-231 = system: MDA-MB-231
Malme-3M = system: Malme-3M
NCI-H460 = system: NCI-H460
SK-MEL-2 = system: SK-MEL-2
SK-MEL-5 = system: SK-MEL-5
SK-OV-3 = system: SK-OV-3
SNB-19 = system: SNB-19
SW-620 = system: SW-620
TK-10 = system: TK-10
BT-549 = system: BT-549
NCI-H522 = system: NCI-H522
OVCAR-3 = system: OVCAR-3
RXF 393 = system: RXF 393

Measured: GI50

O=C(CC(C(=O)c1cccs1)c1ccsc1)c1ccc(Cl)s1 (centres undefined)
inactive: ACHN 96.2 µM | CCRF-CEM > 100 µM | COLO 205 > 100 µM | HCT-116 47.5 µM | HL-60 75.2 µM | K562 > 100 µM | LOX IMVI > 100 µM | MDA-MB-231 > 100 µM | Malme-3M > 100 µM | NCI-H460 > 100 µM | SK-MEL-2 > 100 µM | SK-MEL-5 70.3 µM | SK-OV-3 > 100 µM | SNB-19 72.3 µM | SW-620 > 100 µM | TK-10 > 100 µM

CCOC(=O)[C@H]1C[C@]23CN(C(=O)OC(C)(C)C)CC[C@H]2CCC2(SCCCS2)[C@@H]3N1C
inactive: ACHN 40.9 µM | BT-549 50.2 µM | CCRF-CEM 29.1 µM | COLO 205 28.2 µM | HCT-116 31.8 µM | HL-60 20.7 µM | K562 36.6 µM | LOX IMVI 30.9 µM | Malme-3M 28.4 µM | NCI-H460 33.3 µM | NCI-H522 27.5 µM | OVCAR-3 48.2 µM | RXF 393 33.8 µM | SK-MEL-2 22.2 µM | SK-MEL-5 18.5 µM | SK-OV-3 > 100 µM | SNB-19 76 µM | SW-620 47.8 µM | TK-10 36.6 µM

O=C1Oc2ccccc2C(=O)/C1=C\Nc1nc(-c2ccccc2)cs1
inactive: ACHN 11.2 µM | CCRF-CEM 1.35 µM | COLO 205 2.6 µM | HCT-116 4.95 µM | HL-60 1.45 µM | K562 7.66 µM | LOX IMVI 5.2 µM | MDA-MB-231 18.9 µM | Malme-3M 11.6 µM | NCI-H460 > 100 µM | NCI-H522 2.31 µM | OVCAR-3 14.3 µM | RXF 393 12.4 µM | SK-MEL-2 14.3 µM | SK-MEL-5 2.75 µM | SK-OV-3 33.4 µM | SNB-19 19.9 µM | SW-620 3.31 µM | TK-10 2.21 µM

CCCCCCCCCCCCCCCCCCOP1(=O)OCCO1
inactive: ACHN > 100 µM | CCRF-CEM 54 µM | COLO 205 > 100 µM | HCT-116 49.5 µM | HL-60 23.8 µM | K562 > 100 µM | LOX IMVI 52.1 µM | MDA-MB-231 44.5 µM | Malme-3M > 100 µM | NCI-H522 54.6 µM | OVCAR-3 > 100 µM | RXF 393 16.4 µM | SK-MEL-2 > 100 µM | SK-MEL-5 > 100 µM | SK-OV-3 > 100 µM | SNB-19 44.8 µM | SW-620 > 100 µM | TK-10 30.4 µM

CN(C)[C@@H]1C(O)=C(C(N)=O)C(=O)[C@@]2(O)C(O)=C3C(=O)c4c(O)cccc4C[C@H]3C[C@@H]12
inactive: ACHN 3.74 µM | CCRF-CEM 2.37 µM | COLO 205 1.77 µM | HCT-116 1.77 µM | HL-60 2 µM | K562 2.51 µM | LOX IMVI 1.91 µM | Malme-3M 1.51 µM | NCI-H460 2.18 µM | NCI-H522 2.13 µM | OVCAR-3 1.75 µM | RXF 393 1.69 µM | SK-MEL-2 1.83 µM | SK-MEL-5 1.75 µM | SK-OV-3 1.9 µM | SNB-19 1.97 µM | SW-620 3.11 µM | TK-10 2.52 µM

Cc1c(C(=O)CC(=O)C(=O)Nc2ccccc2C(F)(F)F)[n+]([O-])c2ccccc2[n+]1[O-]
inactive: ACHN 62.2 µM | CCRF-CEM 18.6 µM | COLO 205 12.3 µM | HCT-116 14.7 µM | HL-60 28.2 µM | K562 22 µM | LOX IMVI 18.7 µM | Malme-3M 20.6 µM | NCI-H460 21.3 µM | NCI-H522 16.4 µM | OVCAR-3 2.63 µM | RXF 393 19.2 µM | SK-MEL-2 19.8 µM | SK-MEL-5 16.3 µM | SK-OV-3 25.5 µM | SNB-19 32.1 µM | SW-620 16.2 µM | TK-10 46.8 µM

CC1(C)C2CCC(=O)C1CC2 (centres undefined)
inactive: ACHN > 100 µM | CCRF-CEM > 100 µM | COLO 205 > 100 µM | HCT-116 > 100 µM | HL-60 > 100 µM | K562 58.2 µM | LOX IMVI > 100 µM | MDA-MB-231 > 100 µM | Malme-3M > 100 µM | NCI-H460 > 100 µM | NCI-H522 > 100 µM | OVCAR-3 > 100 µM | RXF 393 > 100 µM | SK-MEL-2 > 100 µM | SK-MEL-5 > 100 µM | SK-OV-3 > 100 µM | SNB-19 > 100 µM | SW-620 > 100 µM | TK-10 > 100 µM

O=c1cc(-c2ccccc2)oc2ccc(Oc3nnnn3-c3ccccc3)cc12
inactive: ACHN > 64.4 µM | BT-549 15.3 µM | CCRF-CEM > 100 µM | COLO 205 > 87.3 µM | HCT-116 > 81.1 µM | HL-60 > 100 µM | K562 3.58 µM | LOX IMVI > 42.7 µM | Malme-3M > 100 µM | NCI-H460 > 100 µM | NCI-H522 70.5 µM | OVCAR-3 > 100 µM | RXF 393 > 51.5 µM | SK-MEL-2 39.2 µM | SK-MEL-5 > 100 µM | SK-OV-3 > 65.3 µM | SNB-19 33.2 µM | SW-620 > 100 µM | TK-10 > 100 µM

O=C(Cc1ccccc1)NN1C(=O)C(Cl)C1c1ccc([N+](=O)[O-])cc1 (centres undefined)
inactive: ACHN > 100 µM | CCRF-CEM > 10 µM | COLO 205 > 100 µM | HCT-116 > 100 µM | HL-60 70.5 µM | K562 65.6 µM | LOX IMVI 87.5 µM | Malme-3M > 100 µM | NCI-H460 > 100 µM | NCI-H522 25.1 µM | OVCAR-3 > 100 µM | RXF 393 84.9 µM | SK-MEL-2 > 100 µM | SK-MEL-5 49.1 µM | SK-OV-3 > 100 µM | SNB-19 > 100 µM | SW-620 > 100 µM | TK-10 > 100 µM

CSc1nc2c(nc(C)c(=O)n2C2OCC(OC(C)=O)C(OC(C)=O)C2OC(C)=O)c(=O)[nH]1 (centres undefined)
inactive: ACHN > 100 µM | CCRF-CEM > 100 µM | COLO 205 > 100 µM | HCT-116 > 100 µM | HL-60 > 100 µM | K562 > 100 µM | LOX IMVI > 100 µM | Malme-3M > 100 µM | NCI-H460 > 100 µM | NCI-H522 > 100 µM | OVCAR-3 > 100 µM | RXF 393 > 100 µM | SK-MEL-2 > 100 µM | SK-MEL-5 > 100 µM | SK-OV-3 > 100 µM | SNB-19 > 100 µM | SW-620 > 100 µM | TK-10 > 100 µM

CC12CC(c3ccccc3O1)C(C(=O)Nc1cccc(F)c1)C(=O)N2 (centres undefined)
inactive: ACHN > 100 µM | BT-549 23.5 µM | CCRF-CEM 26.3 µM | COLO 205 62.7 µM | HCT-116 91.2 µM | HL-60 30.5 µM | K562 35.4 µM | LOX IMVI 49 µM | Malme-3M > 100 µM | NCI-H460 47.2 µM | NCI-H522 > 100 µM | OVCAR-3 92 µM | SK-MEL-2 > 100 µM | SK-MEL-5 22.8 µM | SK-OV-3 > 100 µM | SNB-19 > 100 µM | SW-620 84.9 µM
